Measurements reported in patent US20260085077A1, “HETEROCYCLIC DERIVATIVES AS JANUS KINASE INHIBITORS” (CHIESI FARMACEUTICI S.P.A., priority 2022, published 2026).

Tested on: IL-13 induced pSTAT6 in BEAS-2B human cell line
Test: Inhibition of IL-13 induced pSTAT6 in BEAS
Assay type: cell-based
Conditions: IL-13 induced pSTAT6, BEAS-2B cells, ELISA
Method: BEAS-2B human cell line was seeded (100.000 cells/well) and incubated for 48 h at 37° C., 5% CO2, 95% humidity. Compounds were added and incubated 30 min followed by IL-13 as trigger. After 30 min incubation, cells were lysed and pSTAT6 determined by Fastscan phospho-stat6 (Tyr641) sandwich ELISA kit (cell signaling). Inhibitors were tested at 11 consecutive […] dilutions starting from 10 μM (10 μM-40 pM) in duplicate. Calculation of IC50 data, curves and QC analysis were made using Excel tools and GraphPadPrism software. QC criteria parameters: Z′≥0.35, Hill Slope range 0.5 to 5, S:B>2.

Structure (SMILES): CNc1nn(-c2cc3c(cc2OC)NCCO3)c2cc(-c3cnn4cccnc34)ncc12 [Example 55, 1-(6-methoxy-3,4-dihydro-2H-benzo[b][1,4]oxazin-7-yl)-N-methyl-6-(pyrazolo[1,5-a]pyrimidin-3-yl)-1H-pyrazolo[4,3-c]pyridin-3-amine]
- IC50: 5.01 to 50.1 nM

Structure (SMILES): COC(=O)Nc1nn(-c2cc3c(cc2OC)NCCO3)c2cc(-c3cnn4cccnc34)ncc12 [Example 56, methyl (1-(6-methoxy-3,4-dihydro-2H-benzo[b][1,4]oxazin-7-yl)-6-(pyrazolo[1,5-a]pyrimidin-3-yl)-1H-pyrazolo[4,3-c]pyridin-3-yl)carbamate]
- IC50: 5.01 to 50.1 nM

Structure (SMILES): COc1cc2c(cc1-n1nc(NC(=O)OCCN(C)C)c3cnc(-c4cnn5cccnc45)cc31)OCCN2 [Example 57, 2-(dimethylamino)ethyl (1-(6-methoxy-3,4-dihydro-2H-benzo[b][1,4]oxazin-7-yl)-6-(pyrazolo[1,5-a]pyrimidin-3-yl)-1H-pyrazolo[4,3-c]pyridin-3-yl)carbamate]
- IC50: 5.01 to 50.1 nM

Structure (SMILES): COc1cc2c(cc1-n1nc(NC(=O)OCCN3CCOCC3)c3cnc(-c4cnn5cccnc45)cc31)OCCN2 [Example 58, 2-morpholinoethyl (1-(6-methoxy-3,4-dihydro-2H-benzo[b][1,4]oxazin-7-yl)-6-(pyrazolo[1,5-a]pyrimidin-3-yl)-1H-pyrazolo[4,3-c]pyridin-3-yl)carbamate]
- IC50: 5.01 to 50.1 nM

Structure (SMILES): COc1cc2c(cc1-n1nc(NC(=O)OCCCN3CCN(C)CC3)c3cnc(-c4cnn5cccnc45)cc31)OCCN2 [Example 59, 3-(4-methylpiperazin-1-yl)propyl (1-(6-methoxy-3,4-dihydro-2H-benzo[b][1,4]oxazin-7-yl)-6-(pyrazolo[1,5-a]pyrimidin-3-yl)-1H-pyrazolo[4,3-c]pyridin-3-yl)carbamate]
- IC50: 5.01 to 50.1 nM

Structure (SMILES): COc1cc2c(cc1-n1nc(NC(=O)OCCCN(C)C)c3cnc(-c4cnn5cccnc45)cc31)OCCN2 [Example 60, 3-(dimethylamino)propyl (1-(6-methoxy-3,4-dihydro-2H-benzo[b][1,4]oxazin-7-yl)-6-(pyrazolo[1,5-a]pyrimidin-3-yl)-1H-pyrazolo[4,3-c]pyridin-3-yl)carbamate]
- IC50: 5.01 to 50.1 nM

Structure (SMILES): COc1cc2c(cc1-n1nc(NC(=O)OCCCN3CCOCC3)c3cnc(-c4cnn5cccnc45)cc31)OCCN2 [Example 61, 3-morpholinopropyl (1-(6-methoxy-3,4-dihydro-2H-benzo[b][1,4]oxazin-7-yl)-6-(pyrazolo[1,5-a]pyrimidin-3-yl)-1H-pyrazolo[4,3-c]pyridin-3-yl)carbamate]
- IC50: 5.01 to 50.1 nM

Structure (SMILES): COc1cc2c(cc1-n1nc(NC(=O)OCCN3CCS(=O)(=O)CC3)c3cnc(-c4cnn5cccnc45)cc31)OCCN2 [Example 62, 2-(1,1-dioxidothiomorpholino)ethyl (1-(6-methoxy-3,4-dihydro-2H-benzo[b][1,4]oxazin-7-yl)-6-(pyrazolo[1,5-a]pyrimidin-3-yl)-1H-pyrazolo[4,3-c]pyridin-3-yl)carbamate]
- IC50: 5.01 to 50.1 nM

Structure (SMILES): COc1cc2c(cc1-n1nc(NC(=O)OCCN3CCN(C)CC3)c3cnc(-c4cnn5cccnc45)cc31)OCCN2 [Example 63, 2-(4-methylpiperazin-1-yl)ethyl (1-(6-methoxy-3,4-dihydro-2H-benzo[b][1,4]oxazin-7-yl)-6-(pyrazolo[1,5-a]pyrimidin-3-yl)-1H-pyrazolo[4,3-c]pyridin-3-yl)carbamate]
- IC50: 5.01 to 50.1 nM

Structure (SMILES): COc1cc2c(cc1-n1nc(NC(=O)OCCN3CCSCC3)c3cnc(-c4cnn5cccnc45)cc31)OCCN2 [Example 64, 2-thiomorpholinoethyl (1-(6-methoxy-3,4-dihydro-2H-benzo[b][1,4]oxazin-7-yl)-6-(pyrazolo[1,5-a]pyrimidin-3-yl)-1H-pyrazolo[4,3-c]pyridin-3-yl)carbamate]
- IC50: 5.01 to 50.1 nM

Structure (SMILES): COc1cc2c(cc1-n1nc(NC(=O)OC[C@@H]3CN(C)CCO3)c3cnc(-c4cnn5cccnc45)cc31)OCCN2 [Example 65, (S)-(4-methylmorpholin-2-yl)methyl (1-(6-methoxy-3,4-dihydro-2H-benzo[b][1,4]oxazin-7-yl)-6-(pyrazolo[1,5-a]pyrimidin-3-yl)-1H-pyrazolo[4,3-c]pyridin-3-yl)carbamate]
- IC50: 5.01 to 50.1 nM

Structure (SMILES): COc1cc2c(cc1-n1nc(NC(=O)OCCN3CCCCC3)c3cnc(-c4cnn5cccnc45)cc31)OCCN2 [Example 66, 2-(piperidin-1-yl)ethyl (1-(6-methoxy-3,4-dihydro-2H-benzo[b][1,4]oxazin-7-yl)-6-(pyrazolo[1,5-a]pyrimidin-3-yl)-1H-pyrazolo[4,3-c]pyridin-3-yl)carbamate]
- IC50: 5.01 to 50.1 nM

Structure (SMILES): COc1cc2c(cc1-n1nc(NC(=O)OCCSC3CCOC3=O)c3cnc(-c4cnn5cccnc45)cc31)OCCN2 (stereo not shown) [Example 67, 2-((2-oxotetrahydrofuran-3-yl)thio)ethyl (1-(6-methoxy-3,4-dihydro-2H-benzo[b][1,4]oxazin-7-yl)-6-(pyrazolo[1,5-a]pyrimidin-3-yl)-1H-pyrazolo[4,3-c]pyridin-3-yl)carbamate]
- IC50: 5.01 to 50.1 nM

Structure (SMILES): COc1cc2c(cc1-n1nc(NC(=O)OCCNC3CCOC3=O)c3cnc(-c4cnn5cccnc45)cc31)OCCN2 (stereo not shown) [Example 68, 2-((2-oxotetrahydrofuran-3-yl)amino)ethyl (1-(6-methoxy-3,4-dihydro-2H-benzo[b][1,4]oxazin-7-yl)-6-(pyrazolo[1,5-a]pyrimidin-3-yl)-1H-pyrazolo[4,3-c]pyridin-3-yl)carbamate]
- IC50: 5.01 to 50.1 nM

Structure (SMILES): COc1cc2c(cc1-n1nc(NC(=O)OCCN(C)C)c3cnc(-c4cnn5cccnc45)cc31)CCCN2 [Example 69, 2-(dimethylamino)ethyl (1-(7-methoxy-1,2,3,4-tetrahydroquinolin-6-yl)-6-(pyrazolo[1,5-a]pyrimidin-3-yl)-1H-pyrazolo[4,3-c]pyridin-3-yl)carbamate]
- IC50: 5.01 to 50.1 nM

Structure (SMILES): COc1cc2c(cc1-n1nc(NC(=O)NCCCN3CCOCC3)c3cnc(-c4cnn5cccnc45)cc31)OCCN2 [Example 70, 1-(1-(6-methoxy-3,4-dihydro-2H-benzo[b][1,4]oxazin-7-yl)-6-(pyrazolo[1,5-a]pyrimidin-3-yl)-1H-pyrazolo[4,3-c]pyridin-3-yl)-3-(3-morpholinopropyl)urea]
- IC50: 5.01 to 50.1 nM

Structure (SMILES): COc1cc2c(cc1-n1nc(C)c3cnc(-c4cnn5cccnc45)cc31)C1(CC1)C(=O)N2 [Example 71, 6′-methoxy-5′-(3-methyl-6-(pyrazolo[1,5-a]pyrimidin-3-yl)-1H-pyrazolo[4,3-c]pyridin-1-yl)spiro[cyclopropane-1,3′-indolin]-2′-one]
- IC50: 5.01 to 50.1 nM

Structure (SMILES): COc1cc2[nH]c(=O)oc2cc1-n1nc(NCCN2CCOCC2)c2cnc(-c3cnn4cccnc34)cc21 [Example 72, 5-methoxy-6-(3-((2-morpholinoethyl)amino)-6-(pyrazolo[1,5-a]pyrimidin-3-yl)-1H-pyrazolo[4,3-c]pyridin-1-yl)benzo[d]oxazol-2(3H)-one]
- IC50: 50.1 to 501 nM

Structure (SMILES): COc1cc2c(cc1-n1nc(C(=O)NCCCN(C)C)c3cnc(-c4cnc5cccnn45)cc31)OCCN2 [Example 73, N-(3-(dimethylamino)propyl)-6-(imidazo[1,2-b]pyridazin-3-yl)-1-(6-methoxy-3,4-dihydro-2H-benzo[b][1,4]oxazin-7-yl)-1H-pyrazolo[4,3-c]pyridine-3-carboxamide]
- IC50: 5.01 to 50.1 nM

Structure (SMILES): COc1cc2c(cc1-n1nc(NCCN(C)C)c3cnc(Nc4ncc[nH]c4=O)cc31)OCCN2 [Example 74, 3-((3-((2-(dimethylamino)ethyl)amino)-1-(6-methoxy-3,4-dihydro-2H-benzo[b][1,4]oxazin-7-yl)-1H-pyrazolo[4,3-c]pyridin-6-yl)amino)pyrazin-2(1H)-one]
- IC50: 50.1 to 501 nM

Structure (SMILES): COc1cc2c(cc1-n1nc(C(=O)NCCCN(C)C)c3cnc(Nc4ncc[nH]c4=O)cc31)OCCN2 [Example 75, N-(3-(dimethylamino)propyl)-1-(6-methoxy-3,4-dihydro-2H-benzo[b][1,4]oxazin-7-yl)-6-((3-oxo-3,4-dihydropyrazin-2-yl)amino)-1H-pyrazolo[4,3-c]pyridine-3-carboxamide]
- IC50: 50.1 to 501 nM

Structure (SMILES): COc1cc2c(cc1-n1nc(C(=O)NCCCN3CCC(F)(F)CC3)c3cnc(Nc4ncc[nH]c4=O)cc31)OCCN2 [Example 76, N-(3-(4,4-difluoropiperidin-1-yl)propyl)-1-(6-methoxy-3,4-dihydro-2H-benzo[b][1,4]oxazin-7-yl)-6-((3-oxo-3,4-dihydropyrazin-2-yl)amino)-1H-pyrazolo[4,3-c]pyridine-3-carboxamide]
- IC50: 5.01 to 50.1 nM

Structure (SMILES): COc1cc2c(cc1-n1nc(C(=O)NCCN3CC(=O)OC(C)(C)C3)c3cnc(-c4cnn5cccnc45)cc31)OCCN2 [Example 77, N-(2-(2,2-dimethyl-6-oxomorpholino)ethyl)-1-(6-methoxy-3,4-dihydro-2H-benzo[b][1,4]oxazin-7-yl)-6-(pyrazolo[1,5-a]pyrimidin-3-yl)-1H-pyrazolo[4,3-c]pyridine-3-carboxamide]
- IC50: 5.01 to 50.1 nM

Structure (SMILES): CN(C)CCCNC(=O)c1nn(-c2cc3c(cc2OC(F)F)NCCO3)c2cc(-c3cnn4cccnc34)ncc12 [Example 78, 1-(6-(difluoromethoxy)-3,4-dihydro-2H-benzo[b][1,4]oxazin-7-yl)-N-(3-(dimethylamino)propyl)-6-(pyrazolo[1,5-a]pyrimidin-3-yl)-1H-pyrazolo[4,3-c]pyridine-3-carboxamide]
- IC50: 5.01 to 50.1 nM

Structure (SMILES): COc1cc2c(cc1-n1nc(C(=O)NCCN3CCC(C(N)=O)CC3)c3cnc(-c4cnn5cccnc45)cc31)OCCN2 [Example 79, N-(2-(4-carbamoylpiperidin-1-yl)ethyl)-1-(6-methoxy-3,4-dihydro-2H-benzo[b][1,4]oxazin-7-yl)-6-(pyrazolo[1,5-a]pyrimidin-3-yl)-1H-pyrazolo[4,3-c]pyridine-3-carboxamide]
- IC50: 50.1 to 501 nM
